What was measured:
[1] = Toxicity in Wistar-Han rat assessed as degeneration of seminiferous epithelium in testes at 750 mg/kg, po administered once daily for 7 days; assay type: organism-based; details: in vivo, 168 h, time 7 day
[2] = Cardiotoxicity in iv dose guinea pig assessed as increase in QTc interval at high dose administered continuously for 20 min by ECG analysis; assay type: toxicity, organism-based, Cavia porcellus; details: in vivo
[3] = MRT in Wistar-Han rat at 3 mg/kg, iv measured after 24 hrs by LC-MS/MS analysis; assay type: ADME, organism-based; details: in vivo
[4] = Protein binding in human plasma incubated for 4 hrs by equilibrium dialysis method; assay type: ADME, cell-free; details: read-out: PPB (converted)
[5] = Protein binding in dog plasma incubated for 4 hrs by equilibrium dialysis method; assay type: ADME, cell-free, Canis lupus familiaris; details: read-out: PPB (converted)

- MRT [3]: 2.2 h
- fraction unbound at 4 h [4]: 0.131
- fraction unbound at 4 h [5]: 0.13
SMILES: C[C@@]1(N2CCN(c3cc4cc(NC(=O)[C@H]5CC56CCOCC6)ncc4cc3Cl)CC2)COC[C@@H]1O
- Activity [1]: Toxic
- Activity [2]: Toxic
